Measurements from patent publication US10947215B2, “Heteroaryl compounds and their use as therapeutic drugs” (Dong-A Socio Holdings Co., Ltd., priority 2015, dated 2021).

Tested on: Ba/F3-CDM cells (Ba/F3 transfected with CD8-MerTK)
Assay: In cell MER kinase assay, Ba/F3-CDM cell proliferation without IL-3 (Celltiter-Glo, GI50)
Format: cell-based, murine
Details: 48 hours, read-out: Cell growth inhibition (GI50)
Description: In Cell MER Kinase Assay Using BaF3 Cellular System
To establish an in cell kinase assay for MerTK kinase, the IL-3 dependent Ba/F3 cells of murine lymphoid origin was transfected with CD8-MerTK. […] For a routine cellular assay, Ba/F3-CDM cells were seeded at 2,000 cells per well in 384-well cell culture plate containing DMEM/10% FBS culture media and incubated for 24 hours before addition of compounds pre-diluted in culture media. Following compound treatment, cells were further incubated for 48 hours and the proliferation was measured. To discriminate a Ba/F3 growth inhibition by a specific inhibition of MerTK kinase following compound treatment vs growth inhibition due to a non-specific unintended cytotoxicity of compounds, we routinely carried out control sets of Ba/F3 cells in parallel that grown in IL3-supplemented growth media. In the presence of IL-3, the proliferation of Ba/F3 is no longer dependent on the MerTK activity. Cell growth and proliferation was measured with Celltiter-Glo™ system (Promega, USA) according to the manufacturer's instruction. The half-maximal growth inhibitory concentration (GI50) value was calculated with Prism6.0 software (GraphPad, USA).

Row | Compound | GI50
1 | CC(c1c(F)cc(-c2ccc(CO[C@H]3CCC[C@@H]3NC(=O)c3cc(-c4cnn(C)c4)cnc3N)cc2)cc1F)N1CCN(CCO)CC1 (stereo partly drawn) [Example 212, 2-amino-N-((1S,2S)-2-((3′,5′-difluoro-4′-(1-(4-(2-hydroxyethyl)-piperazin-1-yl)ethyl)-[1,1′-biphenyl]-4-yl)methoxy)cyclopentyl)-5-(1-methyl-1H-pyrazol-4-yl)nicotinamide] | > 1000 nM
2 | Cn1cc(-c2cnc(N)c(C(=O)N[C@H]3CCC[C@@H]3OCc3ccc(-c4ccc(C5(N6CCN(CCO)CC6)CC5)cc4)cc3)c2)cn1 [Example 220, 2-amino-N-((1S,2S)-2-((4′-(1-(4-(2-hydroxyethyl)piperazin-1-yl)cyclopropyl)-[1,1′-biphenyl]-4-yl)methoxy)cyclopentyl)-5-(1-methyl-1H-pyrazol-4-yl)nicotinamide] | < 100 nM
3 | C[C@@H](c1ccc(-c2ccc(CO[C@H]3CCC[C@@H]3NC(=O)c3cc(-c4ccc(F)nc4)cnc3N)cc2)cc1)N1CCN(C)CC1 [Example 222, 6-amino-6′-fluoro-N-((1S,2S)-2-((4′-((S)-1-(4-methylpiperazin-1-yl)ethyl)-[1,1′-biphenyl]-4-yl)methoxy)cyclopentyl)-[3,3′-bipyridine]-5-carboxamide] | < 100 nM
4 | C[C@@H](c1ccc(-c2ccc(CO[C@H]3CCC[C@@H]3NC(=O)c3cc(-c4ccc(F)nc4)cnc3N)cc2)cc1)N1CCN(CCO)CC1 [Example 226, 6-amino-6′-fluoro-N-((1S,2S)-2-((4′-((S)-1-(4-(2-hydroxyethyl)piperazin-1-yl)ethyl)-[1,1′-biphenyl]-4-yl)methoxy)cyclopentyl)-[3,3′-bipyridine]-5-carboxamide] | < 100 nM
5 | C[C@H](c1ccc(-c2ccc(CO[C@H]3CCC[C@@H]3NC(=O)c3cc(-c4ccc(F)nc4)cnc3N)cc2)cc1)N1CCN(CCO)CC1 [Example 227, 6-amino-6′-fluoro-N-((1S,2S)-2-((4′-((R)-1-(4-(2-hydroxyethyl)-piperazin-1-yl)ethyl)-[1,1′-biphenyl]-4-yl)methoxy)cyclopentyl)-[3,3′-bipyridine]-5-carboxamide] | < 100 nM

The next lines start with the values.

Row | GI50 | Compound
6 | < 100 nM | CC(c1ccc(-c2ccc(CO[C@H]3CCC[C@@H]3NC(=O)c3cc(-c4cnn(C)c4)cnc3N)cc2)cc1)N1CCN(C)CC1 (stereo partly drawn) [Example 208, 2-amino-5-(1-methyl-1H-pyrazol-4-yl)-N-((1S,2S)-2-((4′-(1-(4-methylpiperazin-1-yl)ethyl)-[1,1′-biphenyl]-4-yl)methoxy)cyclopentyl)nicotinamide]
7 | < 100 nM | CC(c1ccc(-c2ccc(CO[C@H]3CCC[C@@H]3NC(=O)c3cc(-c4cnn(C)c4)cnc3N)cc2)cc1)N1C[C@@H](C)N(C)[C@@H](C)C1 (stereo partly drawn) [Example 209, 2-amino-5-(1-methyl-1H-pyrazol-4-yl)-N-((1S,2S)-2-((4′-(1-((3S,5R)-3,4,5-trimethylpiperazin-1-yl)ethyl)-[1,1′-biphenyl]-4-yl)methoxy)-cyclopentyl)nicotinamide]
8 | < 100 nM | CC(c1ccc(-c2ccc(CO[C@H]3CCC[C@@H]3NC(=O)c3cc(-c4cnn(C)c4)cnc3N)cc2)cc1)N1C[C@@H](C)N(CCO)[C@@H](C)C1 (stereo partly drawn) [Example 211, 2-amino-N-((1S,2S)-2-((4′-(1-((3S,5R)-4-(2-hydroxyethyl)-3,5-dimethylpiperazin-1-yl)ethyl)-[1,1′-biphenyl]-4-yl)methoxy)cyclopentyl)-5-(1-methyl-1H-pyrazol-4-yl)nicotinamide]
9 | < 100 nM | C[C@H](c1ccc(-c2ccc(CO[C@H]3CCC[C@@H]3NC(=O)c3cc(-c4cnn(C)c4)cnc3N)cc2)cc1)N1CCN(C)CC1 [Example 214, 2-amino-5-(1-methyl-1H-pyrazol-4-yl)-N-((1S,2S)-2-((4′-((R)-1-(4-methylpiperazin-1-yl)ethyl)-[1,1′-biphenyl]-4-yl)methoxy)cyclopentyl)nicotinamide]
10 | < 100 nM | C[C@@H](c1ccc(-c2ccc(CO[C@H]3CCC[C@@H]3NC(=O)c3cc(-c4cnn(C)c4)cnc3N)cc2)cc1)N1CCN(C)CC1 [Example 215]
